Results taken from patent US20060069132A1, “Azolecarboxamide herbicides” (priority 2004, published 2006).

Experiments:
pigweed = assay: Test B pre-/postemergence herbicide test; format: in vivo, Amaranthus retroflexus; settings: for Plant response rating (0 to 100 scale), Pigweed: 0 is no effect, 100 is complete control, preemergence
Procedure, shortened: (§1)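 Evaluation is visual, comparing treated with control plants on a scale where 0 means no effect and 100 means full control. Treatments were preemergence, or postemergence on seedlings 2–18 cm tall, and held 13–15 days in the greenhouse.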

cocklebur = assay: Test B pre-/postemergence herbicide test; format: in vivo, Xanthium strumarium; settings: for Plant response rating (0 to 100 scale), Cocklebur: 0 is no effect, 100 is complete control, preemergence
Procedure, shortened: (§2)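 Test chemicals in a non-phytotoxic solvent mixture with surfactant were applied preemergence to seeded species and postemergence to plants 2-18 cm tall (1- to 4-leaf stage); rice and barnyardgrass were also tested in a flooded paddy at the 2-leaf stage. Visual rating versus controls after 13-15 days in greenhouse, scale 0 (no effect) to 100 (complete control).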

barnyardgrass [1] = assay: Test B flooded paddy test; format: in vivo, Echinochloa crus-galli; settings: scale 0 to 100 (0 no effect, 100 complete control)
Procedure, shortened: (§3)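 Paddy species grown to the 2-leaf stage under flooding; blackgrass sprayed postemergence at 2–18 cm (1- to 4-leaf stage). Plants kept in a greenhouse for 13 to 15 days, then visually rated against controls on 0 (no effect) to 100 (complete control).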

morningglory = assay: Test B pre-/postemergence herbicide test; format: in vivo, Ipomoea coccinea; settings: for Plant response rating (0 to 100 scale), Morningglory: 0 is no effect, 100 is complete control, preemergence
Procedure, shortened: as §2

giant foxtail = assay: Test B pre-/postemergence herbicide test; format: in vivo, Setaria faberi; settings: for Plant response rating (0 to 100 scale), Foxtail, Giant: 0 is no effect, 100 is complete control, preemergence
Procedure, shortened: as §1

rice = assay: Test B flooded paddy test; format: in vivo, Oryza sativa; settings: scale 0 to 100 (0 no effect, 100 complete control)
Procedure, shortened: (§4)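 Each value is a visual 0–100 response rating taken against controls 13 to 15 days after treatment in the greenhouse. Plants received formulated chemical postemergence at the 1- to 4-leaf stage or, in flooded paddy, at the 2-leaf stage.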

large crabgrass = assay: Test B pre-/postemergence herbicide test; format: in vivo, Digitaria sanguinalis; settings: for Plant response rating (0 to 100 scale), Crabgrass, Large: 0 is no effect, 100 is complete control, preemergence
Procedure, shortened: as §1

barnyardgrass [2] = assay: Test B pre-/postemergence herbicide test; format: in vivo, Echinochloa crus-galli; settings: for Plant response rating (0 to 100 scale), Barnyardgrass: 0 is no effect, 100 is complete control, preemergence; for Barnyardgrass plant response rating: Postemergence, scale 0 (no effect) to 100 (complete control)
Procedure, shortened: as §2

blackgrass = assay: Test B postemergence herbicide test; format: in vivo, Alopecurus myosuroides
Procedure, shortened: as §3

wheat = assay: Test B postemergence herbicide test; format: in vivo, Triticum aestivum; design: key to Wheat plant response rating: 0 = no effect, 100 = complete control
Procedure, shortened: as §4

lambsquarters = assay: Test B pre-/postemergence herbicide test; format: in vivo, Chenopodium album; settings: for Plant response rating (0 to 100 scale), Lambsquarters: 0 is no effect, 100 is complete control, preemergence
Procedure, shortened: as §1

Surinam grass = assay: Test B pre-/postemergence herbicide test; format: in vivo, Urochloa decumbens; settings: for Plant response rating (0 to 100 scale), Surinam Grass: 0 is no effect, 100 is complete control, preemergence
Procedure, shortened: as §1

[3] = tested on: small flower umbrella sedge; assay: Test B flooded paddy test; format: in vivo, Cyperus difformis; settings: scale 0 to 100 (0 no effect, 100 complete control)
Procedure, shortened: as §3

corn = assay: Test B pre-/postemergence herbicide test; format: in vivo, Zea mays; settings: for Plant response rating (0 to 100 scale), Corn: 0 is no effect, 100 is complete control, preemergence
Procedure, shortened: as §1

ducksalad = assay: Test B flooded paddy test; format: in vivo, Heteranthera limosa; settings: scale 0 to 100 (0 no effect, 100 complete control)
Procedure, shortened: as §3

wild oat = assay: Test B postemergence herbicide test; format: in vivo, Avena fatua
Procedure, shortened: as §4

velvetleaf = assay: Test B pre-/postemergence herbicide test; format: in vivo, Abutilon theophrasti; settings: for Plant response rating (0 to 100 scale), Velvetleaf: 0 is no effect, 100 is complete control, preemergence
Procedure, shortened: as §1

[4] = Postemergence, 500 g ai/ha, scale 0 (no effect) to 100 (complete control)
[5] = postemergence, 125 g ai/ha, scale 0 to 100
[6] = 500 g ai/ha, scale 0 to 100, 0 no effect, 100 complete control, preemergence

For `CCOC(=O)c1cncc(NC(=O)c2nn(C(C)(C)C)nc2C)c1` [Compound 422], the “Plant response rating (0 to 100 scale), Pigweed” value (pigweed; 125 g ai/ha) was 0, the “Pigweed plant response rating” value (pigweed; [4]) was 0 and the “Pigweed plant response rating” value (pigweed; [5]) was 0. For the same compound, the “Plant response rating (0 to 100 scale), Cocklebur” value (cocklebur; 125 g ai/ha) was 0, the “Cocklebur plant response rating” value (cocklebur; [4]) was 0 and the “Cocklebur plant response rating” value (cocklebur; [5]) was 0. The “Barnyardgrass plant response rating” value (barnyardgrass [1]; 1000 g ai/ha) was 30, the “Plant response rating (0 to 100 scale), Morningglory” value (morningglory; 125 g ai/ha) was 0 and the “Morningglory plant response rating” value (morningglory; [4]) was 0. For the same compound, the “Morningglory plant response rating” value (morningglory; [5]) was 0, the “Plant response rating (0 to 100 scale), Foxtail, Giant” value (giant foxtail; 125 g ai/ha) was 0 and the “Foxtail, Giant plant response rating” value (giant foxtail; [4]) was 0. The “Foxtail, Giant plant response rating” value (giant foxtail; [5]) was 0, the “Rice plant response rating” value (rice; 1000 g ai/ha) was 30 and the “Plant response rating (0 to 100 scale), Crabgrass, Large” value (large crabgrass; 125 g ai/ha) was 0. For the same compound, the “Crabgrass, Large plant response rating” value (large crabgrass; [4]) was 0, the “Crabgrass, Large plant response rating” value (large crabgrass; [5]) was 0 and the “Plant response rating (0 to 100 scale), Barnyardgrass” value (barnyardgrass [2]; 125 g ai/ha) was 0. For the same compound, the “Barnyardgrass plant response rating” value (barnyardgrass [2]; 125 g ai/ha) was 0, the “Barnyardgrass plant response rating” value (barnyardgrass [2]; 500 g ai/ha) was 0 and the “Blackgrass plant response rating” value (blackgrass; [4]) was 20. For the same compound, the “Blackgrass plant response rating” value (blackgrass; [5]) was 20, the “Wheat plant response rating” value (wheat; [6]) was 0 and the “Wheat plant response rating” value (wheat; [4]) was 0. For the same compound, the “Wheat plant response rating” value (wheat; [5]) was 0, the “Plant response rating (0 to 100 scale), Lambsquarters” value (lambsquarters; 125 g ai/ha) was 0 and the “Lambsquarters plant response rating” value (lambsquarters; [4]) was 0. The “Lambsquarters plant response rating” value (lambsquarters; [5]) was 0, the “Plant response rating (0 to 100 scale), Surinam Grass” value (Surinam grass; 125 g ai/ha) was 0 and the “Surinam Grass plant response rating” value (Surinam grass; [4]) was 0. The “Surinam Grass plant response rating” value (Surinam grass; [5]) was 0, the “Sedge, Umbrella plant response rating” value ([3]; 1000 g ai/ha) was 70 and the “Plant response rating (0 to 100 scale), Corn” value (corn; 125 g ai/ha) was 0. The “Corn plant response rating” value (corn; [4]) was 0, the “Corn plant response rating” value (corn; [5]) was 0 and the “Ducksalad plant response rating” value (ducksalad; 1000 g ai/ha) was 20. For the same compound, the “Oat, Wild plant response rating” value (wild oat; [4]) was 0, the “Oat, Wild plant response rating” value (wild oat; [5]) was 0 and the “Plant response rating (0 to 100 scale), Velvetleaf” value (velvetleaf; 125 g ai/ha) was 0. The “Velvetleaf plant response rating” value (velvetleaf; [4]) was 0 and the “Velvetleaf plant response rating” value (velvetleaf; [5]) was 0.

For `CCOC(=O)c1cccc(NC(=O)c2nn(C(C)(C)C)nc2Br)c1` [Compound 432], the “Plant response rating (0 to 100 scale), Pigweed” value (pigweed; 125 g ai/ha) was 0, the “Pigweed plant response rating” value (pigweed; [4]) was 10 and the “Pigweed plant response rating” value (pigweed; [5]) was 0. For the same compound, the “Plant response rating (0 to 100 scale), Cocklebur” value (cocklebur; 125 g ai/ha) was 0, the “Cocklebur plant response rating” value (cocklebur; [4]) was 70 and the “Cocklebur plant response rating” value (cocklebur; [5]) was 40. For the same compound, the “Barnyardgrass plant response rating” value (barnyardgrass [1]; 125 g ai/ha) was 30, the “Plant response rating (0 to 100 scale), Morningglory” value (morningglory; 125 g ai/ha) was 0 and the “Morningglory plant response rating” value (morningglory; [4]) was 30. For the same compound, the “Morningglory plant response rating” value (morningglory; [5]) was 20, the “Plant response rating (0 to 100 scale), Foxtail, Giant” value (giant foxtail; 125 g ai/ha) was 40 and the “Foxtail, Giant plant response rating” value (giant foxtail; [4]) was 40. The “Foxtail, Giant plant response rating” value (giant foxtail; [5]) was 0, the “Rice plant response rating” value (rice; 125 g ai/ha) was 0 and the “Plant response rating (0 to 100 scale), Crabgrass, Large” value (large crabgrass; 125 g ai/ha) was 30. The “Crabgrass, Large plant response rating” value (large crabgrass; [4]) was 30, the “Crabgrass, Large plant response rating” value (large crabgrass; [5]) was 10 and the “Plant response rating (0 to 100 scale), Barnyardgrass” value (barnyardgrass [2]; 125 g ai/ha) was 10. The “Barnyardgrass plant response rating” value (barnyardgrass [2]; 125 g ai/ha) was 20, the “Barnyardgrass plant response rating” value (barnyardgrass [2]; 500 g ai/ha) was 60 and the “Blackgrass plant response rating” value (blackgrass; [4]) was 40. The “Blackgrass plant response rating” value (blackgrass; [5]) was 40, the “Wheat plant response rating” value (wheat; [6]) was 0 and the “Wheat plant response rating” value (wheat; [4]) was 60. For the same compound, the “Wheat plant response rating” value (wheat; [5]) was 50, the “Plant response rating (0 to 100 scale), Lambsquarters” value (lambsquarters; 125 g ai/ha) was 0 and the “Lambsquarters plant response rating” value (lambsquarters; [4]) was 30. For the same compound, the “Lambsquarters plant response rating” value (lambsquarters; [5]) was 0, the “Plant response rating (0 to 100 scale), Surinam Grass” value (Surinam grass; 125 g ai/ha) was 10 and the “Surinam Grass plant response rating” value (Surinam grass; [4]) was 70. The “Surinam Grass plant response rating” value (Surinam grass; [5]) was 10, the “Sedge, Umbrella plant response rating” value ([3]; 125 g ai/ha) was 80 and the “Plant response rating (0 to 100 scale), Corn” value (corn; 125 g ai/ha) was 0. For the same compound, the “Corn plant response rating” value (corn; [4]) was 30, the “Corn plant response rating” value (corn; [5]) was 30 and the “Ducksalad plant response rating” value (ducksalad; 125 g ai/ha) was 30. The “Oat, Wild plant response rating” value (wild oat; [4]) was 60, the “Oat, Wild plant response rating” value (wild oat; [5]) was 50 and the “Plant response rating (0 to 100 scale), Velvetleaf” value (velvetleaf; 125 g ai/ha) was 0. The “Velvetleaf plant response rating” value (velvetleaf; [4]) was 60 and the “Velvetleaf plant response rating” value (velvetleaf; [5]) was 50.
